From the NIST ThermoML archive (doi:10.1021/je0497496)
Where “and” joins values, the source holds several entries; their conditions need not be identical. Equal entries are not always repeated.

Conditions: for vapor or sublimation pressure: Closed cell (Static) method; for mass density: buoyancy

FCC(F)(F)F [1,1,1,2-tetrafluoroethane]
Liquid
Conditions | mass density | vapor or sublimation pressure
253.13 K | 1358.69 kg/m3 and 1358.7 kg/m3 | 133.58 kPa and 133.6 kPa
262.99 K | 1327.33 kg/m3 | 200.47 kPa
263 K | 1327.31 kg/m3 | 200.48 kPa
273.31 K | 1293.96 kg/m3 | 295.5 kPa
283.16 K | 1260.66 kg/m3 | 415.71 kPa
283.17 K | 1260.67 kg/m3 | 415.71 kPa
293.22 K | 1225.34 kg/m3 and 1225.33 kg/m3 | 571.94 kPa and 571.98 kPa
303.25 K | 1187.23 kg/m3 | 771.67 kPa
303.26 K | 1187.22 kg/m3 | 771.76 kPa
313.18 K | 1146.44 kg/m3 | 1018.1 kPa
323.19 K | 1102.35 kg/m3 | 1319.8 kPa
323.2 K | 1102.34 kg/m3 | 1319.9 kPa
333.16 K | 1052.61 kg/m3 | 1683 kPa
333.17 K | 1052.6 kg/m3 | 1683.2 kPa
343.03 K | 997.103 kg/m3 | 2110.6 kPa
343.04 K | 997.091 kg/m3 | 2110.9 kPa
353.16 K | 928.313 kg/m3 and 928.306 kg/m3 | 2633.6 kPa and 2633.7 kPa
363.17 K | 837.765 kg/m3 | 3245.3 kPa
363.18 K | 837.734 kg/m3 | 3245.5 kPa

Fluid (supercritical or subcritical phases)
Conditions | mass density
262.98 K, 30.04 kPa | 1.41703 kg/m3
262.99 K, 30.02 kPa | 1.41553 kg/m3 and 1.41816 kg/m3
262.99 K, 50.03 kPa | 2.37378 kg/m3
262.99 K, 80.08 kPa | 3.83561 kg/m3
262.99 K, 100.09 kPa | 4.82696 kg/m3
262.99 K, 150.06 kPa | 7.37304 kg/m3
273.31 K, 50 kPa | 2.27757 kg/m3 and 2.2813 kg/m3
273.31 K, 100.01 kPa | 4.6218 kg/m3
273.31 K, 150.01 kPa | 7.03559 kg/m3
273.31 K, 200 kPa | 9.53172 kg/m3
273.32 K, 250 kPa | 12.1179 kg/m3
283.16 K, 100.09 kPa | 4.4428 kg/m3
283.16 K, 200.02 kPa | 9.12611 kg/m3
283.16 K, 300.08 kPa | 14.1052 kg/m3
283.17 K, 100.1 kPa | 4.44579 kg/m3
283.17 K, 350.92 kPa | 16.7525 kg/m3
293.21 K, 399.98 kPa | 18.4354 kg/m3
293.21 K, 500.02 kPa | 23.7422 kg/m3
293.22 K, 100.05 kPa | 4.27783 kg/m3 and 4.27519 kg/m3
293.22 K, 200.05 kPa | 8.76202 kg/m3 and 8.75976 kg/m3
293.22 K, 300.02 kPa | 13.4608 kg/m3
303.25 K, 100.02 kPa | 4.1211 kg/m3 and 4.12406 kg/m3
303.26 K, 299.99 kPa | 12.8979 kg/m3
303.26 K, 499.91 kPa | 22.542 kg/m3
303.26 K, 711.4 kPa | 34.0053 kg/m3
313.17 K, 100.02 kPa | 3.98495 kg/m3 and 3.98345 kg/m3
313.17 K, 200.04 kPa | 8.11408 kg/m3
313.17 K, 600.21 kPa | 26.4214 kg/m3
313.17 K, 902.11 kPa | 42.8957 kg/m3
313.18 K, 400.01 kPa | 16.8674 kg/m3
313.18 K, 800.41 kPa | 37.0004 kg/m3
323.19 K, 100.02 kPa | 3.85767 kg/m3 and 3.85694 kg/m3
323.19 K, 500 kPa | 20.6111 kg/m3
323.19 K, 940.01 kPa | 42.4962 kg/m3
323.19 K, 1271.1 kPa | 62.9174 kg/m3
323.2 K, 300 kPa | 11.9392 kg/m3
323.2 K, 802.37 kPa | 35.149 kg/m3
333.16 K, 101.53 kPa | 3.7964 kg/m3
333.16 K, 303.79 kPa | 11.6786 kg/m3
333.16 K, 1500 kPa | 73.4336 kg/m3
333.17 K, 101.53 kPa | 3.79264 kg/m3
333.17 K, 502.7 kPa | 19.9182 kg/m3
333.17 K, 801.13 kPa | 33.4094 kg/m3
333.17 K, 1009.4 kPa | 43.8443 kg/m3
333.17 K, 1300.4 kPa | 60.3214 kg/m3
343.03 K, 136.28 kPa | 4.96602 kg/m3
343.03 K, 1500 kPa | 68.2379 kg/m3
343.03 K, 1704.5 kPa | 81.5238 kg/m3
343.04 K, 136.71 kPa | 4.97127 kg/m3
343.04 K, 303.78 kPa | 11.2865 kg/m3
343.04 K, 520.7 kPa | 19.9261 kg/m3
343.04 K, 849.11 kPa | 34.1538 kg/m3
343.04 K, 1093.8 kPa | 45.8644 kg/m3
343.04 K, 1300.4 kPa | 56.7069 kg/m3
343.04 K, 1900.2 kPa | 96.118 kg/m3
353.16 K, 136.72 kPa | 4.81465 kg/m3
353.16 K, 500.97 kPa | 18.447 kg/m3
353.16 K, 2000.3 kPa | 94.8889 kg/m3
353.16 K, 2200.5 kPa | 110.087 kg/m3
353.17 K, 1000.4 kPa | 39.3925 kg/m3
353.17 K, 1508.8 kPa | 64.532 kg/m3
353.17 K, 2408.1 kPa | 128.821 kg/m3
363.17 K, 153.67 kPa | 5.26494 kg/m3
363.17 K, 500.5 kPa | 17.8052 kg/m3
363.17 K, 1001.1 kPa | 37.7848 kg/m3
363.17 K, 3101.3 kPa | 188.758 kg/m3
363.18 K, 1500.8 kPa | 60.7126 kg/m3
363.18 K, 2003.2 kPa | 88.1709 kg/m3
363.18 K, 2500.4 kPa | 122.731 kg/m3
363.18 K, 2800.4 kPa | 150.158 kg/m3
363.18 K, 3002.1 kPa | 174.085 kg/m3
